From patent US20240082313A1, “PHARMACEUTICAL COMPOSITIONS AND THEIR METHODS OF USE” (The Trustees of Indiana University, priority 2021, published 2024) come the findings set out here.

Assay [1] has as its system EO771 mammary tumor cells. In words: Wound-healing scratch assay. It counts as cell-based, mouse. The settings on record: inhibitor applied with iTS CM. The protocol: Two-dimensional motility assay. A wound-healing scratch motility assay was performed to measure 2-dimensional cell motility. Cells were seeded in 12-well plates, after cell attachment, a plastic pipette tip was used to scratch a gap on the cell layer. Images of the cell-free scratch zone were obtained via an inverted microscope at 0 h, and the areas newly occupied with cells were determined 48 h after scratching. The areas were quantified with Image J (National Institutes of Health, Maryland, USA).
Scratch assay. A wound-healing scratch assay was conducted to evaluate 2-dimensional migratory behavior. Approximately 4×10^5 cells were seeded in 12-well plates. After cell attachment, a plastic pipette tip was used to scratch a gap on the cell layer. After the removal of the floating cells, CM was added. Images of the cell-free scratch zone were collected at 0 h, and the areas newly occupied with cells were determined 24-48 h after scratching. The areas were quantified with IMAGE J™ (National Institutes of Health, Bethesda, MD, USA).

Assay [2] has as its system EO771 mammary tumor cells. In words: TRANSWELL invasion assay. It counts as cell-based, mouse. The conditions noted are these: inhibitor applied with iTS CM. The protocol: Invasion assay. The invasion capacity of cancer cells was determined using a 24-well plate, TRANSWELL® chambers (Thermo Fisher Scientific, Waltham, MA, USA) with […] pore size and MATRIGEL™. Cell invasion was measured in TRANSWELL® chambers with a coating including MATRIGEL™ (100 μg/ml). The cells in 200 μL serum-free DMEM were placed on the upper chamber and 800 μL iTS CM was added in the lower chamber. After 24 h, the cells that had invaded the lower side of the membrane were stained with Crystal Violet. At least five randomly chosen images were taken under a microscope, and the average number of stained cells that represented the relative invasion was determined.

Assay [3] relates to 4T1.2 mouse mammary tumor cells. In words: Tumor selectivity from MTT-based viability (tumor vs non-tumor cells). Format: cell-based. The text has this:
(§1) Variations in tumor selectivity among the predicted tumor-suppressing proteins. Tumor-suppressing proteins may inhibit the progression of tumor cells but not inhibit the progression of non-tumor cells. Using the MTT-based viability, tumor selectivity was defined as a ratio of (reduction in MTT-based viability of tumor cells) to (reduction in MTT-based viability of non-tumor cells). The tumor selectivity may be above one to remove tumor cells and a larger value may signify a reduction in the inhibition of the growth of non-tumor cells. The tumor selectivity was determined using three tumor cells (4T1.2 mouse mammary tumor cells, EO771 mammary tumor cells, and MDA-MB-231 breast cancer cells) and three non-tumor cells (adipose cells, MLO-A5 osteocytes, and murine MSCs). […] Table 2 provides the tumor selectivity of 4T1.2 Oct4 CM, 4T1.2 c-Myc CM, and 10 tumor-suppressing protein candidates.

The test system of assay [4] is EO771 mammary tumor cells. Described as above. Format: cell-based, mouse. The settings on record: tumor cells EO.
Excerpt: as §1

Assay [5] relates to MDA-MB-231 breast cancer cells. The assay is described as above. Format: cell-based, human.
Excerpt: as §1

The test system of the next assay is EO771 cells. Briefly: Western blot analysis. Format: cell-based, mouse. The protocol:
Western blot analysis. Cultured cells were lysed in a radio-immunoprecipitation assay buffer with protease inhibitors (Santa Cruz Biotechnology, Santa Cruz, CA, USA) and phosphatase inhibitors (Calbiochem, Billerica, MA, USA). After cell lysis, proteins were fractionated by 10-15% SDS gels and electro-transferred to polyvinylidene difluoride (“PVDF”) transfer membranes (Millipore, Billerica, MA, USA). After blocking 1 h with a blocking buffer (Bio-Rad), the membrane was incubated overnight with primary antibodies and then with secondary antibodies conjugated with horseradish peroxidase for 45 min (Cell Signaling, Danvers, MA, USA). Antibodies against β-catenin, cleaved-caspase 3, Runx2, Snail, Enolase-1 (Cell Signaling, Danvers, MA, USA), MMP9 (Santa Cruz, Dallas, TX, USA), TRAIL (Novus, Centennial, CO, USA), p53 (Invitrogen, Carlsbad, CA, USA), and β-actin as a control (Sigma, St. Louis, MO, USA), were employed. The level of proteins was determined using a SUPERSIGNAL™ west femto maximum sensitivity substrate (Thermo Scientific, Waltham, MA, USA), and a luminescent image analyzer (LAS-3000, Fuji Film, Tokyo, Japan) was used to quantify signal intensities.
For orientation: Immunoblotting shows a protein as a band on a membrane.

With `NCCOCCOCCNC(=O)Cc1ccc(Nc2nc(NCc3ccc(F)cc3)nc(NCC3CCCCC3)n2)cc1` [AP-III-a4, reference compound], the “inhibitory effect of β-catenin-overexpressing iTS CM on migration” value in assay [1] is listed as “suppressed the inhibitory effect”. The “inhibitory effect of β-catenin-overexpressing iTS CM on invasion” value in assay [2] was “suppressed the inhibitory effect”.
“Flna: recombinant protein, tumor-suppressing protein candidate”: the Tumor selectivity in assay [3] (non-tumor cells A5) worked out at 1.43; in assay [3] (non-tumor cells Adipose), 1.19; in assay [3] (non-tumor cells MSC), 1.05; in assay [4] (non-tumor cells A5) it was 1.97; in assay [4] (non-tumor cells Adipose), 1.64; in assay [4] (non-tumor cells MSC), 1.45. Further, the Tumor selectivity in assay [5] (non-tumor cells A5) came to 1.54; in assay [5] (non-tumor cells Adipose), 1.28; in assay [5] (non-tumor cells MSC) it was 1.13.
“Myh9: recombinant protein, tumor-suppressing protein candidate”: the Tumor selectivity in assay [3] (non-tumor cells A5) is given as 0.25; in assay [3] (non-tumor cells Adipose), 0.48; in assay [3] (non-tumor cells MSC) it was 0.70; in assay [4] (non-tumor cells A5) it was 0.32; in assay [4] (non-tumor cells Adipose) it was 0.64; in assay [4] (non-tumor cells MSC) it was 0.93. In addition, the Tumor selectivity stood at 0.23 in assay [5] (non-tumor cells A5), 0.46 in assay [5] (non-tumor cells Adipose) and 0.66 in assay [5] (non-tumor cells MSC).
Consider “Plec: recombinant protein, tumor-suppressing protein candidate”, for which the Tumor selectivity is listed as 1.33 in assay [3] (non-tumor cells A5); 1.28 in assay [3] (non-tumor cells Adipose); 1.06 in assay [3] (non-tumor cells MSC); 1.95 in assay [4] (non-tumor cells A5); 1.86 in assay [4] (non-tumor cells Adipose); 1.54 in assay [4] (non-tumor cells MSC). For the same molecule, the Tumor selectivity came to 1.16 in assay [5] (non-tumor cells A5), 1.10 in assay [5] (non-tumor cells Adipose) and 0.91 in assay [5] (non-tumor cells MSC).

B1: Aldoa: recombinant protein, tumor-suppressing protein candidate (protein, UniProt P05064 2-364, looked up)
Fructose-bisphosphate …: PHPYPALTPEQKKELSDIAHRIVAPGKGILAADESTGSIAKRLQSIGTENTEENRRFYRQLLLTADDRVNPCIGGVILFHETLYQKADDGRPFPQVIKSKGGVVGIKVDKGVVPLAGTNGETTTQGLDGLSERCAQYKKDGADFAKWRCVLKIGEHTPSALAIMENANVLARYASICQQNGIVPIVEPEILPDGDHDLKRCQYVTEKVLAAVYKALSDHHVYLEGTLLKPNMVTPGHACTQKFSNEEIAMATVTALRRTVPPAVTGVTFLSGGQSEEEASINLNAINKCPLLKPWALTFSYGRALQASALKAWGGKKENLKAAQEEYIKRALANSLACQGKYTPSGQSGAAASESLFISNHAY
Regarding B1, the Tumor selectivity is reported as 2.72 in assay [3] (non-tumor cells A5); 3.06 in assay [3] (non-tumor cells Adipose); 1.39 in assay [3] (non-tumor cells MSC); 1.87 in assay [4] (non-tumor cells A5); 2.10 in assay [4] (non-tumor cells Adipose); 0.96 in assay [4] (non-tumor cells MSC). Also, the Tumor selectivity in assay [5] (non-tumor cells A5) was 1.75; in assay [5] (non-tumor cells Adipose) it was 1.97; in assay [5] (non-tumor cells MSC) it was 0.90.

B2: Eef1a1: recombinant protein, tumor-suppressing protein candidate (protein, UniProt P10126 2-462, looked up)
Elongation factor 1-alpha 1: GKEKTHINIVVIGHVDSGKSTTTGHLIYKCGGIDKRTIEKFEKEAAEMGKGSFKYAWVLDKLKAERERGITIDISLWKFETSKYYVTIIDAPGHRDFIKNMITGTSQADCAVLIVAAGVGEFEAGISKNGQTREHALLAYTLGVKQLIVGVNKMDSTEPPYSQKRYEEIVKEVSTYIKKIGYNPDTVAFVPISGWNGDNMLEPSANMPWFKGWKVTRKDGSASGTTLLEALDCILPPTRPTDKPLRLPLQDVYKIGGIGTVPVGRVETGVLKPGMVVTFAPVNVTTEVKSVEMHHEALSEALPGDNVGFNVKNVSVKDVRRGNVAGDSKNDPPMEAAGFTAQVIILNHPGQISAGYAPVLDCHTAHIACKFAELKEKIDRRSGKKLEDGPKFLKSGDAAIVDMVPGKPMCVESFSDYPPLGRFAVRDMRQTVAVGVIKAVDKKAAGAGKVTKSAQKAQKAK
With B2, the Tumor selectivity in assay [3] (non-tumor cells A5) is 1.23; in assay [3] (non-tumor cells Adipose), 0.74; in assay [3] (non-tumor cells MSC) it was 1.34; in assay [4] (non-tumor cells A5), 0.96; in assay [4] (non-tumor cells Adipose), 0.58; in assay [4] (non-tumor cells MSC), 1.05. Further, the values for the Tumor selectivity in assay [5] (non-tumor cells A5), in assay [5] (non-tumor cells Adipose) and in assay [5] (non-tumor cells MSC) were 0.86, 0.52 and 0.94, respectively.

B3: TRAIL: an apoptosis-inducing factor applied to EO771 tumor cells (protein, UniProt P50592 1-291, looked up)
Tumor necrosis factor ligand …: MPSSGALKDLSFSQHFRMMVICIVLLQVLLQAVSVAVTYMYFTNEMKQLQDNYSKIGLACFSKTDEDFWDSTDGEILNRPCLQVKRQLYQLIEEVTLRTFQDTISTVPEKQLSTPPLPRGGRPQKVAAHITGITRRSNSALIPISKDGKTLGQKIESWESSRKGHSFLNHVLFRNGELVIEQEGLYYIYSQTYFRFQEAEDASKMVSKDKVRTKQLVQYIYKYTSYPDPIVLMKSARNSCWSRDAEYGLYSIYQGGLFELKKNDRIFVSVTNEHLMDLDQEASFFGAFLIN
With B3, the “level of cleaved caspase 3” value with EO771 cells is reported as “increased”.
